Test results reported in patent US8664217B2, “Benzodiazepine compound and pharmaceutical composition” (Otsuka Pharmaceutical Co., Ltd., priority 2008, dated 2014).

melting point: 88.1 to 92.2 °C
SMILES: CCN1C(=O)C(C)(C)C(=O)N(C)c2cc(OCCCN(CCc3cccnc3)C(=O)c3ccncc3)ccc21 [Example 459, N-[3-(1-ethyl-3,3,5-trimethyl-2,4-dioxo-2,3,4,5-tetrahydro-1H-benzo[b][1,4]diazepin-7-yloxy)propyl]-N-(2-pyridin-3-ylethyl)isonicotinamide]
